From BindingDB's records for doi:10.1016/j.bmcl.2003.11.047 (National Chung-Hsing University, 2004) come the findings set out here.

Structures are written as SMILES.

This experiment deals with Phospholipase A2 (Naja mossambica). The experiment in a line: Binding affinity against phospholipase A2 of Naja mocambique mocambique.

For the compound `CCCCCCCCNC(=O)Oc1cccc(OC(=O)NCCCCCCCC)c1` [Octyl-carbamic acid 3-octylcarbamoyloxy-phenyl ester], affinity was put at a Ki of 4 µM. That is a single-digit micromolar value.

For `CCCCCCCCNC(=O)Oc1ccc(OC(=O)NCCCCCCCC)cc1` [Octyl-carbamic acid 4-octylcarbamoyloxy-phenyl ester], the Ki (in general, a dissociation constant, usually derived from enzyme kinetics or from competition with a known ligand) turned out to be 15 µM.
